Values quoted from earlier work, collected in US20230390221A1, “PHARMACEUTICAL COMPOSITIONS WITH LOW AMOUNTS OF NITROSAMINE IMPURITIES AND METHODS FOR PRODUCING THE SAME” (Zentiva K.S., priority 2020, published 2023).

Conditions: limit set by EMA or FDA

For `CCN(CC)N=O` [NDEA, N-nitrosodiethylamine], the acceptable daily limits is given as 26.5 ng/day.
In the case of `CN(C)N=O` [NDMA, N-nitrosodimethylamine], the acceptable daily limits is listed as 96 ng/day.
